Experimental data taken from patent publication US20150225454A1, “TETRABRANCHED PEPTIDES AND ANALOGUES AS A NEW CLASS OF ANTIMICROBIALS AND THEIR PREPARATION THEREOF” (priority 2012, published 2015).
Where two headings read alike, the source gives them in different places. Where a SMILES comes first, the peptide text is derived from it. Bridges are numbered along the chain shown (N, C = ends). Roman numbers before positions name the chains, in order.

Tests used:
C. albicans [1] = assay: ATP bioluminescence assay (extracellular ATP release); format: cell-based
Experimental: The extracellular ATP levels upon challenging C. albicans with B4010 were determined as reported before (Koshlukova et al., 1999). Cells (OD600≈0.6) were incubated […] with or without various additives for 2 hours at 37° C. with orbital shaking. […] Each tube was then centrifuged at 5000 g for 5 mins. Then 225 μL of boiling TE buffer (50 mM Tris, 2 mM EDTA, pH 7.8) was added to the 25 μl of the supernatant and mixed well. This mixture was boiled again for another 2 minutes and stored at 4° C. until further examination. 100 μL of a luciferin-luciferase ATP assay mixture was added to 100 μL of the supernatant and luminescence was monitored using the Infinite M200 microplate reader (Tecan Group Ltd., Switzerland). […] For dose-dependent studies, the concentration of the peptide was varied from 0.4-44 μM. The extracellular ATP concentration was determined from calibration curve obtained by ATP assay kit (Molecular Probes, OR, USA) as per the manufacturer's instruction.

C. albicans ATCC 10231 = assay: Antifungal activity after incubation with trypsin; format: cell-based; settings: trypsin:peptide 1:100, 37° C., up to 6 h
Experimental: For all the experiments, unless otherwise stated, ATCC 10231 strain was used. B4010 (1 mg/ml) was incubated with trypsin (enzyme:peptide ratio 1:100) at 37° C. 20 μL aliquot of this mixture was withdrawn at various time intervals (0.5, 1, 2, 4 and 6 h) and mixed with 1 μL of trypsin inhibitor. The antifungal activity of the peptide was determined by adding this mixture to 180 μl of inoculum and monitoring the growth at OD600 for 24 h. Similar experiments performed in the presence of trypsin/trypsin inhibitor (without B4010) were used as a positive control. For assessing the antifungal activity in tear fluid (TF), the peptide was dissolved in freshly collected rabbit TF and incubated at 37° C. for 6 h. After incubation, an equal volume of an overnight culture of C. albicans (˜10^6 CFU/ml) was mixed with peptides in tear fluid and incubated at 37° C. for 24 h. The final concentrations of the peptide were at 4.4, 8.8 and 22 μM. A 100 μL aliquot of serial dilutions (10^2 or 10^3 times) of this mixture were inoculated on a SD agar plate and then incubated for 48 h at 37° C. Culture alone and culture with 50% tear fluid served as the positive control. […]
The peptide B4010 was incubated with trypsin (trypsin:peptide ratio=1:100) at 37° C. An aliquot of this mixture was withdrawn at various time intervals, added to the C. albicans inoculum and the growth was monitored (FIG. 3C).

IOBA-NHC cells = format: cell-based, human; settings: 24 h incubation; read-out: EC50 (concentration that reduces the viable cells by 50%)
Procedure, shortened: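 Subconfluent (~70%) IOBA-NHC conjunctival cells, passages 50–80, seeded ~10,000/well and grown 24 h at 37 °C in supplemented DMEM/F12 with 10% FBS. Exposed to peptide at 0.22–225 μM; cytotoxicity followed over time by MultiTox-Fluor […] fluorescence (ex 485/em 520 nm).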

[2] = system: C. albicans (ATCC 10231 and DF2672R); format: cell-based; settings: for time to 4 log reduction (99.99%) in viable cells: ATCC strain
Experimental: The time-kill kinetics was measured for two strains of C. albicans (ATCC 10231 and DF2672R). The cultures were grown overnight in SD broth and the cell concentration was adjusted to 10^5-10^6 CFU/ml with phosphate buffer. The peptide or antifungals were added to the individual cultures. […] The test solution was incubated at 37° C. with constant shaking. 100 μL of the suspension is withdrawn at predetermined time points, serially diluted (10^2 or 10^3 fold) and poured into the SDA plate. The plate was incubated for 48 h at 37° C. for colony counting. The data were expressed in terms of % cell viability relative to the positive control.

C. albicans [3] = assay: Cell viability assay under diS-C3-5 assay conditions; format: cell-based; settings: concentration exceeding 4×MIC
Experimental: To verify if the dissipation of membrane potential is linked to candidacidal activity, a cell viability assay was performed under identical conditions.

C. albicans [4] = format: cell-based
Experimental: For the effects of energy poisons and ion channel inhibitors, yeast cells (10^5-10^6 CFU/ml) were incubated for 2 h with or without additives at 37° C. A final concentration of 5.5 μM B4010 peptide was added to the cell suspension and incubated further for another 1.5 h at 37° C. Each cell suspension was further diluted and 100 μl of the cells were plated and incubated at 37° C. SDA plates with additives (and no peptide) served as the positive control. Cell viability was obtained by counting the number of colonies formed in each plate after 48 h incubation at 37° C. The final concentrations of the additives were: CCCP (5 μM), NaN3 (5 mM), 4-AP (1 mM), NPPB (0.5 mM), […] (1 mM) and tetra ethyl ammonium chloride (15 mM). The reported values were averages of two independent duplicate experiments. Control experiments with all the additives were also performed to assess the toxicity of the additives to C. albicans.

CC(C)[C@H](NC(=O)[C@H](CCCCN)NC(=O)[C@H](CCCNC(=N)N)NC(=O)CNC(=O)[C@@H](N)CCCNC(=N)N)C(=O)N[C@H](C(=O)N[C@@H](CCCNC(=N)N)C(=O)N[C@@H](CCCNC(=N)N)C(=O)NCCCC[C@H](NC(=O)[C@H](CCCNC(=N)N)NC(=O)[C@H](CCCNC(=N)N)NC(=O)[C@@H](NC(=O)[C@@H](NC(=O)[C@H](CCCCN)NC(=O)[C@H](CCCNC(=N)N)NC(=O)CNC(=O)[C@@H](N)CCCNC(=N)N)C(C)C)C(C)C)C(=O)NCCCC[C@H](NC(=O)[C@H](CCCCNC(=O)[C@H](CCCNC(=N)N)NC(=O)[C@H](CCCNC(=N)N)NC(=O)[C@@H](NC(=O)[C@@H](NC(=O)[C@H](CCCCN)NC(=O)[C@H](CCCNC(=N)N)NC(=O)CNC(=O)[C@@H](N)CCCNC(=N)N)C(C)C)C(C)C)NC(=O)[C@H](CCCNC(=N)N)NC(=O)[C@H](CCCNC(=N)N)NC(=O)[C@@H](NC(=O)[C@@H](NC(=O)[C@H](CCCCN)NC(=O)[C@H](CCCNC(=N)N)NC(=O)CNC(=O)[C@@H](N)CCCNC(=N)N)C(C)C)C(C)C)C(=O)N[C@@H](CCCCN)C(=O)O)C(C)C [Peptide B4010] (I: H-RGRKVVRRKKK-OH / II: H-RGRKVVRRK / III: H-RGRKVVRR / IV: H-RGRKVVRR; amide I:9-IV:C, I:10-II:C, II:9-III:C; N-terminus and C-terminus assumed)
time to maximum ATP efflux (C. albicans [1]; 4×MIC): ≤ 30 min
concentration of maximum ATP release (C. albicans [1]; dose-dependent study): around 4 ×MIC
antifungal activity after trypsin incubation (C. albicans ATCC 10231): No loss of antifungal activity
EC50 (IOBA-NHC cells): 220 µM
time to complete killing ([2]; 4×MIC): 30 min
killing ([2]; ATCC 10231, 1 h, 1): ~91%
killing ([2]; ATCC 10231, 48 h, 2): ~97%
time to 3 log reductions of viable cells ([2]; ATCC and clinical isolates, 2× or 4×MIC): less than 1 h
time to 4 log reduction (99.99%) in viable cells ([2]; 4×MIC): ≤ 20 minutes
time to 4 log reduction (99.99%) in viable cells ([2]; 8×MIC): ≤ 10 minutes
time to complete killing ([2]; C. albicans DF2672R, 2×MIC): 60 min
cell viability (C. albicans [3]): complete loss of viability
loss of viability (C. albicans [4]): 54±6%
protection from B4010-induced lethality (C. albicans [4]; cells pre-incubated with CCCP): partial protection
viability (C. albicans [4]; cells pretreated with TEA and 4-AP): significant loss of viability
protection from B4010-induced lethality (C. albicans [4]; presence of NaN3): complete protection
